According to patent US5093477A, “Rapidly cleavable substrate for HIV protease” (priority 1988, dated 1992):
Where a SMILES comes first, the peptide text is derived from it. [ ]: non-standard residue; d: D form. The star is where a group is joined. Sta = CC(C)C[C@H](N)[C@@H](O)CC(=O)O; Isovaleryl = CC(C)CC(=O)*

Key:
Type in all cases: biochemical
HIV protease [1] = molecular target: T1, HIV protease (Human immunodeficiency virus type 1 group M subtype B, UniProt P04585); test: HIV protease inhibitor test with Ser-Phe-Asn-Phe-Opr-Gln-Ile as substrate; conditions: substrate Ser-Phe-Asn-Phe-Opr-Gln-Ile 2 mg/ml, HIV protease No. I (1:10), blank 33.62 %
T1 construct: The enzyme is composed of only 99 amino acids and evidently eliminates itself from the pol gene
Procedure: A) General procedure for testing inhibitors of HIV protease with Ser-Phe-Asn-Phe-Opr-Gln-Ile
2 mg of Ser-Phe-Asn-Phe-Opr-Gln-Ile are dissolved in 1 ml of MGTE15 buffer (possibly using ultrasound) and subsequently filtered through a sterile filter (0.45 μm).
2.5 times the desired molarity of the inhibitor per ml of solution are weighed in and dissolved in DMSO (10% of the final volume). The solution is diluted to the final volume with MGTE15 buffer and filtered through a sterile filter (0.45 μm).
5 μl of the HIV protease solution are diluted with MGTE25 buffer as required.
10 μl portions of the substrate solution are pipetted into test tubes (16×100) with screw caps. 10 μl of MGTE15 buffer which contains 10% DMSO are pipetted into the blank. 10 μl portions of the inhibitor solutions are added to the remaining test tubes. These samples are incubated at 37° C. for 5-10 minutes and then 5 μl of the protease solution are added to each. After reaction at 37° C. for 2 hours, 10 or 20 μl of each sample (depending on the sensitivity of the HPLC apparatus) are removed by pipette, placed in microvials and diluted with 120 μl of the HPLC solvent.
(§1) Solvent system: 80% 0.1 M phosphoric acid pH 2.5. 20% (w/w) acetonitrile
(§2) Column: Merck ®LICHROSORB RP18 (5 μm) 250×4
(§3) Column temperature: 42° C.
(§4) Detector parameters: 215 nm, 0.08 AUF, 18.2° C.
(§5) Analysis time: 11 minutes
The % content of the tetrapeptide peak relative to the tetrapeptide+heptapeptide total corresponds to the proportion cleaved.

HIV protease [2] = molecular target: T1, HIV protease; test: HIV protease kinetics: cleavage of peptide substrates followed by HPLC (Tab. 1-4); conditions: substrate 4 mg/ml, HIV protease No. II (5 μl)
Procedure: e) Conditions for HPLC analysis:
as §1, §2, §3, §4, §5
Retention time of the substrate: 8.1 minutes
Retention time of the N-terminal tetrapeptide: 3.9 minutes
Under the conditions chosen here, the heptapeptides are separated from the N-terminal tetrapeptide produced in the enzymatic cleavage. The % content of the tetrapeptide peak relative to the tetrapeptide+heptapeptide total corresponds to the proportion cleaved.
B) Procedure for HIV protease kinetics (Tab. 1-4)
10 μl of substrate solution (2-4 mg/ml) in MGTE15 buffer and 10 μl of MGTE15 buffer which contains 10% dimethyl sulfoxide are combined and incubated at 37° C. for 5-10 minutes. 5 μl of the HIV protease solution in MGTE25 buffer are added to this, and the mixture is shaken at 37° C. […] The microliter syringe is used to load the total amount onto the HPLC column. HPLC conditions as in A).

HIV protease [3] = molecular target: T1, HIV protease; test: HIV protease kinetics: comparison of the cleavage rate of several substrates (Tab. 6); conditions: substrate 2 mg/ml, HIV protease No. II (1:4)
Procedure: C) Procedure for the HIV protease kinetics (Tab. 6) 10 μl of substrate solution (2 mg/ml) in MGTEl5 buffer and 10 μl of MGTE15 buffer are combined and incubated at 37° C. for 5-10 minutes. 5 μl of HIV protease No. II (diluted 1:4 with MGTE25 buffer) are added to this, and the mixture is shaken at 37° C. Subsequent procedure as in B).
Column: Merck HIBAR ®LICHROSORB RP8 (7 μm) 250×4
Flow rate: 1 ml min for SFNFPQI and SFNFOQI 0.5 ml/min for […] and VSQNYOIVQ. Otherwise as in Ae).

Row | Compound | % tetrapeptide = % cleavage (HIV protease [3]; 5 min) [%] | % tetrapeptide = % cleavage (HIV protease [3]; 10 min) [%] | % tetrapeptide = % cleavage (HIV protease [3]; 20 min) [%] | % tetrapeptide = % cleavage (HIV protease [3]; 40 min) [%] | % tetrapeptide = % cleavage (HIV protease [3]; 80 min) [%] | % tetrapeptide = % cleavage (HIV protease [3]; 160 min) [%] | % tetrapeptide = % cleavage (HIV protease [3]; 320 min) [%] | also measured
1 | CC(C)CC(=O)N[C@H](C(=O)N[C@H](C(=O)N[C@@H](CC(C)C)[C@@H](O)CC(=O)N[C@@H](C)C(=O)N[C@@H](CC(C)C)[C@@H](O)CC(=O)O)C(C)C)C(C)C [Pepstatin A] (Isovaleryl-VV[Sta]A[Sta]-OH) |  |  |  |  |  |  |  | Cleavage (%) (HIV protease [1]; inhibitor 10^-4 M): 1.25%; Cleavage (%) (HIV protease [1]; inhibitor 10^-5 M): 4.73%; Cleavage (%) (HIV protease [1]; inhibitor 10^-6 M): 18.22%; Cleavage (%) (HIV protease [1]; inhibitor 10^-7 M): 25.09%
2 | H-SFNFPQI-OH [SFNFPQI, H-Ser-Phe-Asn-Phe-Pro-Gln-Ile-OH] | 0.25 | 4.68 | 7.01 | 11.34 | 19.50 | 34.19 | 48.18 | % cleavage after 5 minutes' cleavage time (text summary of Tab. 1 and 2) (HIV protease [2]; 5 minutes, both experiments): about 4%; % cleavage (HIV protease [2]; Experiment A, 5 min): 4.00%; % cleavage (HIV protease [2]; Experiment A, 10 min): 8.19%; % cleavage (HIV protease [2]; Experiment A, 20 min): 14.57%; % cleavage (HIV protease [2]; Experiment A, 40 min): 23.40%; % cleavage (HIV protease [2]; Experiment A, 80 min): 39.43%; % cleavage (HIV protease [2]; Experiment A, 160 min): 58.39%; % cleavage (HIV protease [2]; Experiment A, 320 min): 70.16%; % cleavage (HIV protease [2]; Experiment B, 5 min): 4.15%; % cleavage (HIV protease [2]; Experiment B, 10 min): 7.54%; % cleavage (HIV protease [2]; Experiment B, 20 min): 14.35%; % cleavage (HIV protease [2]; Experiment B, 40 min): 23.00%; % cleavage (HIV protease [2]; Experiment B, 80 min): 37.68%; % cleavage (HIV protease [2]; Experiment B, 160 min): 57.11%; % cleavage (HIV protease [2]; Experiment B, 320 min): 72.51%
3 | H-VSQNYPIVQ-OH | 3.66 | 6.53 | 11.31 | 20.32 | 31.49 | 55.00 | 62.48 | 
4 | H-Val-Ser-Gln-Asn-Tyr-Opr-Ile-Val-Gln-OH [VSQNYOIVQ] | 10.27 | 20.72 | 40.47 | 60.50 | 88.98 | 100.00 | 100.00 | 
